Measurements: the supplement of paper PMC8617591

What was measured:
[1] = system: Mycobacterium tuberculosis Erdman (autoluminescent); experiment: total FIC50 (Loewe) at 50% inhibition, three-drug combination (log2); higher = more antagonistic
Method: (§1)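 DiaMOND equipotent three-drug combination dose responses (10 doses, 1.5- or 2-fold spacing, centred on IC90) against autoluminescent M. tuberculosis Erdman in 8 in vitro models. Read-out is OD600, or luminescence for the intracellular and dormancy models, normalised to untreated wells. Hill-fit Einf, AUC25 and GRinf are potency metrics; FIC50 and FIC90 are total Loewe fractional inhibitory concentrations as log2 (negative = synergy).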

[2] = system: Mycobacterium tuberculosis Erdman (autoluminescent); experiment: total FIC90 (Loewe) at 90% inhibition, three-drug combination (log2); higher = more antagonistic
Method: as §1

[3] = system: Mycobacterium tuberculosis Erdman (autoluminescent); experiment: AUC25, normalised area under dose response up to IC25 (three-drug combination) (fraction (0-1)); higher = more potent at low dose
Method: as §1

[4] = system: Mycobacterium tuberculosis Erdman (autoluminescent); experiment: Einf, fitted maximum growth inhibition of three-drug combination (fraction); higher = stronger maximal inhibition
Method: as §1

[5] = system: Mycobacterium tuberculosis Erdman (autoluminescent); experiment: GRinf, maximum normalised growth rate inhibition (three-drug combination) (unitless (-1 to 1)); higher = less effect (negative = killing)
Method: as §1

COc1nc2ccc(Br)cc2cc1[C@@H](c1ccccc1)[C@@](O)(CCN(C)C)c1cccc2ccccc12 [bedaquiline] + CC[C@@H](CO)NCCN[C@@H](CC)CO [ethambutol] + COc1c(N2C[C@@H]3CCCN[C@@H]3C2)c(F)cc2c(=O)c(C(=O)O)cn(C3CC3)c12 [moxifloxacin]
Conditions	AUC25, [3]	Einf, [4]	GRinf, [5]	total FIC50, [1]	total FIC90, [2]
in vitro model: acidic pH 5.7, time point: constant (~7 days, model-specific)	0.0871	0.818	-0.484	0.542	–
in vitro model: acidic pH 5.7, time point: terminal (~4-5 doublings, model-specific)	0.0798	0.968	-0.239	0.896	0.318
in vitro model: intracellular J774, time point: constant = terminal	–	0.951	-0.177	–	-0.597

Conditions	AUC25, [3]	Einf, [4]	GRinf, [5]	total FIC50, [1]	total FIC90, [2]
in vitro model: butyrate, time point: constant (~7 days, model-specific)	0.0669	0.943	-0.107	0.634	–
in vitro model: butyrate, time point: terminal (~4-5 doublings, model-specific)	0.0565	0.976	-0.091	0.608	0.135
in vitro model: cholesterol 0.05 mM, time point: constant (~7 days, model-specific)	0.0787	0.746	-0.304	0.605	–
in vitro model: cholesterol 0.05 mM, time point: terminal (~4-5 doublings, model-specific)	0.0645	0.902	-0.132	1.36	0.517
in vitro model: cholesterol-high 0.2 mM, time point: constant (~7 days, model-specific)	0.0262	0.947	-0.654	1.13	–
in vitro model: cholesterol-high 0.2 mM, time point: terminal (~4-5 doublings, model-specific)	0.0315	1	-0.729	1.33	1.07
in vitro model: dormancy (butyrate + nitrate, low O2), time point: constant (~7 days, model-specific)	0.14	0.884	0.39	1.02	–
in vitro model: dormancy (butyrate + nitrate, low O2), time point: terminal (~4-5 doublings, model-specific)	0.114	0.987	-0.126	0.343	0.644
in vitro model: standard 7H9 glycerol, time point: constant = terminal	0.0556	0.955	-0.0832	0.482	0.479
in vitro model: valerate, time point: constant (~7 days, model-specific)	0.0922	0.906	-0.0299	0.726	–
in vitro model: valerate, time point: terminal (~4-5 doublings, model-specific)	0.0526	0.939	-0.0195	0.757	0.289

NNC(=O)c1ccncc1 [isoniazid] + COc1c(N2C[C@@H]3CCCN[C@@H]3C2)c(F)cc2c(=O)c(C(=O)O)cn(C3CC3)c12 [moxifloxacin] + NC(=O)c1cnccn1 [pyrazinamide]
Conditions	AUC25, [3]	Einf, [4]	GRinf, [5]	total FIC50, [1]	total FIC90, [2]
in vitro model: acidic pH 5.7, time point: constant (~7 days, model-specific)	0.0943	0.811	-0.673	-1.74	–
in vitro model: acidic pH 5.7, time point: terminal (~4-5 doublings, model-specific)	0.0851	0.971	-0.382	-2.52	-1.33
in vitro model: intracellular J774, time point: constant = terminal	–	0.997	-0.252	–	0.681

Conditions	AUC25, [3]	Einf, [4]	GRinf, [5]	total FIC50, [1]	total FIC90, [2]
in vitro model: butyrate, time point: constant (~7 days, model-specific)	0.0913	0.951	-0.232	-1.78	-0.791
in vitro model: butyrate, time point: terminal (~4-5 doublings, model-specific)	0.0549	0.975	-0.195	-1.66	-1.72
in vitro model: cholesterol 0.05 mM, time point: constant (~7 days, model-specific)	0.0921	0.697	-0.188	–	–
in vitro model: cholesterol 0.05 mM, time point: terminal (~4-5 doublings, model-specific)	0.0805	0.887	-0.177	-0.327	–
in vitro model: cholesterol-high 0.2 mM, time point: constant (~7 days, model-specific)	0.0786	0.911	-0.235	0.416	–
in vitro model: cholesterol-high 0.2 mM, time point: terminal (~4-5 doublings, model-specific)	0.0668	0.981	-0.527	0.819	0.533
in vitro model: dormancy (butyrate + nitrate, low O2), time point: constant (~7 days, model-specific)	0.0724	0.877	0.245	-2.06	-2.38
in vitro model: dormancy (butyrate + nitrate, low O2), time point: terminal (~4-5 doublings, model-specific)	0.0689	0.984	-0.161	-1.92	-1.58
in vitro model: standard 7H9 glycerol, time point: constant = terminal	0.0639	0.983	-0.168	–	–
in vitro model: valerate, time point: constant (~7 days, model-specific)	0.117	0.877	0.0249	-1.97	–
in vitro model: valerate, time point: terminal (~4-5 doublings, model-specific)	0.0825	0.931	0.0159	-1.91	-1.83

COc1c(N2C[C@@H]3CCCN[C@@H]3C2)c(F)cc2c(=O)c(C(=O)O)cn(C3CC3)c12 [moxifloxacin] + NC(=O)c1cnccn1 [pyrazinamide] + CO[C@H]1/C=C/O[C@@]2(C)Oc3c(C)c(O)c4c(O)c(c(/C=N/N5CCN(C6CCCC6)CC5)c(O)c4c3C2=O)NC(=O)/C(C)=C\C=C\[C@H](C)[C@H](O)[C@@H](C)[C@@H](O)[C@@H](C)[C@H](OC(C)=O)[C@@H]1C [rifapentine]
Conditions	AUC25, [3]	Einf, [4]	GRinf, [5]	total FIC50, [1]	total FIC90, [2]
in vitro model: acidic pH 5.7, time point: constant (~7 days, model-specific)	0.0979	0.916	-0.164	0.396	–
in vitro model: acidic pH 5.7, time point: terminal (~4-5 doublings, model-specific)	0.0717	0.996	-0.192	0.991	-0.209
in vitro model: intracellular J774, time point: constant = terminal	–	0.968	-0.65	–	0.713

Conditions	AUC25, [3]	Einf, [4]	GRinf, [5]	total FIC50, [1]	total FIC90, [2]
in vitro model: butyrate, time point: constant (~7 days, model-specific)	0.118	0.907	0.0713	0.589	0.846
in vitro model: butyrate, time point: terminal (~4-5 doublings, model-specific)	0.0899	0.961	0.0339	0.781	1.19
in vitro model: cholesterol 0.05 mM, time point: constant (~7 days, model-specific)	0.116	0.617	-0.407	–	–
in vitro model: cholesterol 0.05 mM, time point: terminal (~4-5 doublings, model-specific)	0.0984	0.913	-0.171	1.31	–
in vitro model: cholesterol-high 0.2 mM, time point: constant (~7 days, model-specific)	0.0917	0.947	-0.459	0.921	–
in vitro model: cholesterol-high 0.2 mM, time point: terminal (~4-5 doublings, model-specific)	0.0805	1	-0.837	1.23	1.05
in vitro model: dormancy (butyrate + nitrate, low O2), time point: constant (~7 days, model-specific)	0.0716	0.862	0.214	0.262	0.265
in vitro model: dormancy (butyrate + nitrate, low O2), time point: terminal (~4-5 doublings, model-specific)	0.07	0.979	-0.13	0.473	1.04
in vitro model: standard 7H9 glycerol, time point: constant = terminal	0.0577	0.882	0.0649	–	–
in vitro model: valerate, time point: constant (~7 days, model-specific)	0.0789	0.81	0.162	0.849	–
in vitro model: valerate, time point: terminal (~4-5 doublings, model-specific)	0.0473	0.929	0.0611	0.778	0.693
